Results: paper PMC6199744, “Development of Chemical Proteomics for the Folateome and Analysis of the Kinetoplastid Folateome” (ACS Infectious Diseases, 2018)
Where two headings read alike, the source gives them in different places.

How the values were obtained:
Type in all cases: binding
[1] = biological target: T1, HeLa cell extract proteins (Homo sapiens, UniProt P55060)
T1 construct: endogenous in cells; host or cells: HeLa cell extract
T1 sequence (P55060 1-971): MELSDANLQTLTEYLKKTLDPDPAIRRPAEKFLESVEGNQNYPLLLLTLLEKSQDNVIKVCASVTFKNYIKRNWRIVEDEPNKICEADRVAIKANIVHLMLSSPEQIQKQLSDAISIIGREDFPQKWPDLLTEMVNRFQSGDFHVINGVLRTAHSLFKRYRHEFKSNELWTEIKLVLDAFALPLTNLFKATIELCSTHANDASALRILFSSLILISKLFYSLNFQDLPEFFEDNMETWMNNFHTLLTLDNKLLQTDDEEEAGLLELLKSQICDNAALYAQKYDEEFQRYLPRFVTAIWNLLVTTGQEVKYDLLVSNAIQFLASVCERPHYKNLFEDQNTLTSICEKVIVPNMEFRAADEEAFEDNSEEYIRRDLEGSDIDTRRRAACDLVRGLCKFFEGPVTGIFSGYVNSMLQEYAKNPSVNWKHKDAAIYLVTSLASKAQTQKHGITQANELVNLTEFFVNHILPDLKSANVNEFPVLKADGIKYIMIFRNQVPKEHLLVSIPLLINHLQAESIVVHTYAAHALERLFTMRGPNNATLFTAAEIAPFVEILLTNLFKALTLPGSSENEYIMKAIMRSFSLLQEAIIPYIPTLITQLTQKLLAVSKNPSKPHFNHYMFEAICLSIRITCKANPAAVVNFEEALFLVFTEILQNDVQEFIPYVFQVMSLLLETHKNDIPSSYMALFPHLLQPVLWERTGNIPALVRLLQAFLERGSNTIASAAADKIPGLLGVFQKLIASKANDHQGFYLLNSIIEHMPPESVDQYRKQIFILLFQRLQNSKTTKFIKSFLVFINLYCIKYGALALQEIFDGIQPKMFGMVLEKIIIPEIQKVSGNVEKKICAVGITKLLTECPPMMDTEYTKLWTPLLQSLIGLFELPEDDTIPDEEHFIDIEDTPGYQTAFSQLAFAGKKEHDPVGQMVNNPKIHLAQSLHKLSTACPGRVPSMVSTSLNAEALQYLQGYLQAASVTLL

[2] = biological target: T2, HeLa cell extract proteins (Homo sapiens, UniProt O43143)
T2 construct: endogenous in cells; host or cells: HeLa cell extract
T2 sequence (O43143 whole entry): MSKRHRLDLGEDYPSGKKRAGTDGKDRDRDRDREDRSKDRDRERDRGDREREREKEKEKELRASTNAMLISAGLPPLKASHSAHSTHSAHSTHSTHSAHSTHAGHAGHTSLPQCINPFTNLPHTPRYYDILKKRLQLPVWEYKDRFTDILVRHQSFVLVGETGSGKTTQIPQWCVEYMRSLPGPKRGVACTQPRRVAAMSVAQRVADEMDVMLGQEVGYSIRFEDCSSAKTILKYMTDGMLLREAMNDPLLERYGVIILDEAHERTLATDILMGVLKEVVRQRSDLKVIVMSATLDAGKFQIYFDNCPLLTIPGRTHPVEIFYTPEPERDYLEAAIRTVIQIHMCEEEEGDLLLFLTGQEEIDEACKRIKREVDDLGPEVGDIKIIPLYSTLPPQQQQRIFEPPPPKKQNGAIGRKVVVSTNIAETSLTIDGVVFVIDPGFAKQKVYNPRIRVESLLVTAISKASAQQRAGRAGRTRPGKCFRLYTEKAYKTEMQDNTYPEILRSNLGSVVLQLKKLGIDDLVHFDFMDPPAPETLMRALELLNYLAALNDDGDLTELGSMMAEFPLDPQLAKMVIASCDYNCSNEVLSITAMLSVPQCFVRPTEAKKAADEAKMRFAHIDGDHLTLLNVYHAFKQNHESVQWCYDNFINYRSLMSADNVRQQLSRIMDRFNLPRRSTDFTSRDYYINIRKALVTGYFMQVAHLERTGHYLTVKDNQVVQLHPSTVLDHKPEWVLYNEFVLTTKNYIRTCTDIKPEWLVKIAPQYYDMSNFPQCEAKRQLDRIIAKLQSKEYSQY

[3] = biological target: T3, HeLa cell extract proteins (Homo sapiens, UniProt P06454)
T3 construct: endogenous in cells; host or cells: HeLa cell extract
T3 sequence (P06454 1-111): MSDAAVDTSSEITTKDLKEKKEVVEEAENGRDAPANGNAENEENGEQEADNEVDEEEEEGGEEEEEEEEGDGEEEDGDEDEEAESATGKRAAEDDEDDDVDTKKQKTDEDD

[4] = biological target: T4, HeLa cell extract proteins (Homo sapiens, UniProt P05165)
T4 construct: endogenous in cells; host or cells: HeLa cell extract
T4 sequence (P05165 53-728): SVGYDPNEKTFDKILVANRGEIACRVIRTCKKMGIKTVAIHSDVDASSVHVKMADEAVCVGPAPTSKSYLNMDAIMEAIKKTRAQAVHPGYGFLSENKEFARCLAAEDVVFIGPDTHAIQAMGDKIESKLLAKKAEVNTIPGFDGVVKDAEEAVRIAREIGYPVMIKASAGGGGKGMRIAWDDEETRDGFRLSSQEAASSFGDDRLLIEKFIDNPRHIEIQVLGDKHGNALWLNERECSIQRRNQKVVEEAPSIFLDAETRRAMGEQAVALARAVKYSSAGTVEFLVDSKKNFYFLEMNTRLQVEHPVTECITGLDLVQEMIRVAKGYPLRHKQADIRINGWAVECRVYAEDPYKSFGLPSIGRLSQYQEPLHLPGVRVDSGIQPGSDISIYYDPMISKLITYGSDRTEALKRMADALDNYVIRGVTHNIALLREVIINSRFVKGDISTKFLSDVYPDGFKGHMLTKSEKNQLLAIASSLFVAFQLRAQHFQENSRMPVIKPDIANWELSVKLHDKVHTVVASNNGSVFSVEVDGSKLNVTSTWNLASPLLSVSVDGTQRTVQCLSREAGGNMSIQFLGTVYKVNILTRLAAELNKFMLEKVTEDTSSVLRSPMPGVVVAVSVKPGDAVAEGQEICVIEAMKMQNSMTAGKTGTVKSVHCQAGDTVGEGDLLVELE

[5] = biological target: T5, HeLa cell extract proteins (Homo sapiens, UniProt Q15084)
T5 construct: endogenous in cells; host or cells: HeLa cell extract
T5 sequence (Q15084 20-440): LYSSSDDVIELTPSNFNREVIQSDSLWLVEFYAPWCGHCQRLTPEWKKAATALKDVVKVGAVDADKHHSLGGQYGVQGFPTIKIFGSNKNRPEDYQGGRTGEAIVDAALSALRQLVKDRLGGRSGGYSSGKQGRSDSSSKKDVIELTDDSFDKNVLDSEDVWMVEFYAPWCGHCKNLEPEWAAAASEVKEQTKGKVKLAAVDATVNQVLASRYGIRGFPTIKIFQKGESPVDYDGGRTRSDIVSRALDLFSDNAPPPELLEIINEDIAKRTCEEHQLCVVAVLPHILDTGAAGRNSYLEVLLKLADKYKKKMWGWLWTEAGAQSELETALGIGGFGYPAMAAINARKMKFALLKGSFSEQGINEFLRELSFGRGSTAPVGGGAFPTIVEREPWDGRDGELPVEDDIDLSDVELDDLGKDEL

[6] = biological target: T6, HeLa cell extract proteins (Homo sapiens, UniProt Q9UBM7)
T6 construct: endogenous in cells; host or cells: HeLa cell extract
T6 sequence (Q9UBM7 1-475): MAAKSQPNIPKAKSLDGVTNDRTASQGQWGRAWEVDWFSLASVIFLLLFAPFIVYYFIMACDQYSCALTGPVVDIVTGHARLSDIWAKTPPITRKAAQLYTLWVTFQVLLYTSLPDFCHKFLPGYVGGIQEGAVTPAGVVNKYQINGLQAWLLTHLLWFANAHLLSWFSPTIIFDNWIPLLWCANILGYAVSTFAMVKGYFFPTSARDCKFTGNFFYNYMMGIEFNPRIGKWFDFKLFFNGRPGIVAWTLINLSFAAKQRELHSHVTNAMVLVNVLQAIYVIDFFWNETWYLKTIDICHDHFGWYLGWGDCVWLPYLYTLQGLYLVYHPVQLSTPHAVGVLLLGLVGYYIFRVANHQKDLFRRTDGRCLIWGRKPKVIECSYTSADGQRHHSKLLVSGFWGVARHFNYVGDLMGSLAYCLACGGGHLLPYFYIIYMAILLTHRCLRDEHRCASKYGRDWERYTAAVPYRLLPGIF

[7] = HeLa, protein PCCA (80 KDA PROTEIN)
[8] = HeLa, protein PTMA (15 KDA PROTEIN.)

Row | Structure (SMILES) | fold changes relative to vehicle control ([1]; protein CSE1L, HeLa) | fold changes relative to vehicle control ([2]; protein DHX15, HeLa) | fold changes relative to vehicle control ([3]; protein PTMA, HeLa) | fold changes relative to vehicle control [4, 7] | fold changes relative to vehicle control ([5]; HeLa, protein PDIA6) | fold changes relative to vehicle control ([6]; HeLa, captured protein DHCR7) | fold changes relative to vehicle control [1] | fold changes relative to vehicle control [2] | fold changes relative to vehicle control [3] | fold changes relative to vehicle control [4] | fold changes relative to vehicle control [5] | fold changes relative to vehicle control [6] | fold changes relative to vehicle control ([2]; captured protein DHX15, HeLa) | fold changes relative to vehicle control [3, 8] | fold changes relative to vehicle control ([4]; captured protein PCCA, HeLa) | fold changes relative to vehicle control ([5]; protein PDIA6, HeLa) | fold changes relative to vehicle control ([6]; captured protein DHCR7, HeLa)
1 | Nc1nc2c(c(=O)[nH]1)N(C=O)C(CNc1ccc(C(=O)N[C@@H](CCC(=O)O)C(=O)O)cc1)CN2 (stereo partly drawn) [LEU, leucovorin] | 0.94 | 0.74 | 0.82 | 1.07 | 1.03 | 0.99 |  |  |  |  |  |  |  |  |  |  | 
2 | Nc1nc2[nH]cc(CCc3ccc(C(=O)N[C@@H](CCC(=O)O)C(=O)O)cc3)c2c(=O)[nH]1 [PTX, pemetrexed] |  |  |  |  |  |  | 0.88 | 0.71 | 0.97 | 0.21 | 1.12 | 0.98 |  |  |  |  | 
3 | CCCCCCOc1ccc(Cc2cnc(N)nc2N)cc1 [compound 1] | 1.02 |  |  |  |  |  |  |  |  |  |  |  | 0.71 | 1.18 fold | 1.07 | 1.09 | 0.95
4 | CCCCCCOc1cccc(Cc2cnc(N)nc2N)c1 [compound 2] | 1.52 |  |  |  |  |  |  |  |  |  |  |  | 0.9 | 3.52 fold | 0.99 | 1.75 | 1.03
5 | Nc1nc2cccc(-c3ccccc3)c2n1Cc1ccc(Cl)c(Cl)c1 [compound 3] | 1.06 |  |  |  |  |  |  |  |  |  |  |  | 0.62 | 0.68 fold | 1.01 | 0.89 | 1.02
6 | NCCOCCOCC(=O)Nc1nc2ncc(CNc3ccc(C(=O)NC(CCC(=O)O)C(=O)O)cc3)nc2c(=O)[nH]1 (stereo not drawn) [compound 6] | 1.09 | 0.83 | 0.89 | 0.98 | 1.35 | 0.96 |  |  |  |  |  |  |  |  |  |  | 
7 | NCCCNc1ccc(C(=O)NC(CCC(=O)O)C(=O)O)cc1 (stereo not drawn) [compound 7] | 1.04 | 0.75 | 0.72 | 1.04 | 1 | 0.98 |  |  |  |  |  |  |  |  |  |  | 
